Test results published in ChEMBL document CHEMBL3046832, “Synthesis of some sulfonamides, disubstituted sulfonylureas or thioureas and some structurally related variants. A class of promising antitumor agents” (2007).

Experiments:
Assay type in all cases: functional
[1] = Cytotoxicity against Homo sapiens (human) ovarian cancer cells after 48 hr by SRB assay; settings: Cancer cell lines
T47D = experiment: Cytotoxicity against Homo sapiens (human) T47D cells after 48 hr by SRB assay
NCI-H522 = experiment: Cytotoxicity against Homo sapiens (human) NCI-H522 cells after 48 hr by SRB assay; settings: NCI-H522, 48 h
[2] = Cytotoxicity against Homo sapiens (human) NCI-H322 cells after 48 hr by SRB assay; settings: NCI-H322, 48 h
HT-29 = experiment: Cytotoxicity against Homo sapiens (human) HT-29 cells after 48 hr by SRB assay; settings: HT-29, 48 h
[3] = Cytotoxicity against Homo sapiens (human) prostate cancer cells after 48 hr by SRB assay; settings: Cancer cell lines
SK-MEL-2 = experiment: Cytotoxicity against Homo sapiens (human) SK-MEL-2 cells after 48 hr by SRB assay; settings: SK-MEL-2, 48 h
Hs-578T = experiment: Cytotoxicity against Homo sapiens (human) Hs578T cells after 48 hr by SRB assay
NCI-H23 = experiment: Cytotoxicity against Homo sapiens (human) NCI-H23 cells after 48 hr by SRB assay; settings: NCI-H23, 48 h
OVCAR-5 = experiment: Cytotoxicity against Homo sapiens (human) OVCAR5 cells after 48 hr by SRB assay; settings: OVCAR-5, 48 h
HOP-62 = experiment: Cytotoxicity against Homo sapiens (human) HOP62 cells after 48 hr by SRB assay; settings: HOP-62, 48 h
CAKI-1 = experiment: Cytotoxicity against Homo sapiens (human) Caki1 cells after 48 hr by SRB assay; settings: CAKI-1, 48 h
[4] = Cytotoxicity against Homo sapiens (human) leukemia cells after 48 hr by SRB assay; settings: Leukemia cell
UO-31 = experiment: Cytotoxicity against Homo sapiens (human) UO31 cells after 48 hr by SRB assay; settings: UO-31, 48 h
U-251 = experiment: Cytotoxicity against Homo sapiens (human) U251 cells after 48 hr by SRB assay; settings: U-251, 48 h
SF-268 = experiment: Cytotoxicity against Homo sapiens (human) SF268 cells assessed as cellular growth after 48 hr by Alamar blue assay; design: concentration or dose not given beside the values
NCI-H460 [5] = experiment: Cytotoxicity against Homo sapiens (human) NCI-H460 cells after 48 hr by SRB assay; settings: NCI-H460, 48 h
UACC-257 = experiment: Cytotoxicity against Homo sapiens (human) UACC257 cells after 48 hr by SRB assay; settings: UACC-257, 48 h
BT-549 = experiment: Cytotoxicity against Homo sapiens (human) BT549 cells after 48 hr by SRB assay; settings: BT-549, 48 h
RPMI-8226 = experiment: Cytotoxicity against Homo sapiens (human) RPMI8226 cells after 48 hr by SRB assay; settings: RPMI-8226, 48 h
MCF7 [6] = experiment: Cytotoxicity against Homo sapiens (human) MCF7 cells after 48 hr by SRB assay; settings: MCF7, 48 h
RXF 393 = experiment: Cytotoxicity against Homo sapiens (human) RXF393 cells after 48 hr by SRB assay; settings: RXF 393, 48 h
SW-620 = experiment: Cytotoxicity against Homo sapiens (human) SW620 cells after 48 hr by SRB assay; settings: SW-620, 48 h
OVCAR-3 = experiment: Cytotoxicity against Homo sapiens (human) OVCAR3 cells after 48 hr by SRB assay; settings: OVCAR-3, 48 h
[7] = Cytotoxicity against Homo sapiens (human) breast cancer cells after 48 hr by SRB assay; settings: Cancer cell lines
IGROV-1 = experiment: Cytotoxicity against Homo sapiens (human) IGROV1 cells after 48 hr by SRB assay; settings: IGROV-1, 48 h
SF-539 = experiment: Cytotoxicity against Homo sapiens (human) SF539 cells after 48 hr by SRB assay; settings: SF-539, 48 h
[8] = Cytotoxicity against Homo sapiens (human) renal cancer cells after 48 hr by SRB assay; settings: Cancer cell lines
[9] = Cytotoxicity against Homo sapiens (human) melanoma cells after 48 hr by SRB assay; settings: Melanoma cell
OVCAR-4 = experiment: Cytotoxicity against Homo sapiens (human) OVCAR4 cells after 48 hr by SRB assay; settings: OVCAR-4, 48 h
MDA-MB-231 = experiment: Cytotoxicity against Homo sapiens (human) MDA-MB-231 cells after 48 hr by SRB assay; settings: MDA-MB-231, 48 h
KM12 = experiment: Cytotoxicity against Homo sapiens (human) KM12 cells after 48 hr by SRB assay; settings: KM12, 48 h
HCT-15 = experiment: Cytotoxicity against Homo sapiens (human) HCT15 cells after 48 hr by SRB assay; settings: HCT-15, 48 h
SNB-75 = experiment: Cytotoxicity against Homo sapiens (human) SNB75 cells after 48 hr by SRB assay; settings: SNB-75, 48 h
NCI-H460 [10] = experiment: Cytotoxicity against Homo sapiens (human) NCI-H460 cells assessed as cellular growth after 48 hr by Alamar blue assay; design: concentration or dose not given beside the values
786-0 = experiment: Cytotoxicity against Homo sapiens (human) 786-0 cells after 48 hr by SRB assay; settings: 786-0, 48 h
EKVX = experiment: Cytotoxicity against Homo sapiens (human) EKVX cells after 48 hr by SRB assay
[11] = Cytotoxicity against Homo sapiens (human) NCI-ADR-RES cells after 48 hr by SRB assay
SF-295 = experiment: Cytotoxicity against Homo sapiens (human) SF295 cells after 48 hr by SRB assay; settings: SF-295, 48 h
[12] = Cytotoxicity against Homo sapiens (human) non-small cell lung cancer cells after 48 hr by SRB assay; settings: Cancer cell lines
SN12C = experiment: Cytotoxicity against Homo sapiens (human) SN12C cells after 48 hr by SRB assay
HCC 2998 = experiment: Cytotoxicity against Homo sapiens (human) HCC2998 cells after 48 hr by SRB assay; settings: HCC 2998, 48 h
UACC-62 = experiment: Cytotoxicity against Homo sapiens (human) UACC62 cells after 48 hr by SRB assay; settings: UACC-62, 48 h
M14 = experiment: Cytotoxicity against Homo sapiens (human) M14 cells after 48 hr by SRB assay; settings: M14, 48 h
A549 = experiment: Cytotoxicity against Homo sapiens (human) A549 cells after 48 hr by SRB assay; settings: A549, 48 h
SK-OV-3 = experiment: Cytotoxicity against Homo sapiens (human) SKOV3 cells after 48 hr by SRB assay; settings: SK-OV-3, 48 h
MCF7 [13] = experiment: Cytotoxicity against Homo sapiens (human) MCF7 cells assessed as cellular growth after 48 hr by Alamar blue assay; design: concentration or dose not given beside the values

Compound: O=C1CCS/C(=N\S(=O)(=O)c2ccc(N3N=C4c5ccccc5CC4C3c3cccs3)cc2)N1C(=O)c1ccccc1 (stereo not drawn)
- GI50 [1]: 36.9 µM
- TGI [1]: 42.1 µM
- GI50 (T47D): > 100 µM
- GI50 (NCI-H522): 14.4 µM
- GI50 [2]: 32.5 µM
- GI50 (HT-29): 39.6 µM
- GI50 [3]: 26.2 µM
- TGI [3]: > 100 µM
- GI50 (SK-MEL-2): 29.4 µM
- GI50 (Hs-578T): 2.85 µM
- GI50 (NCI-H23): 17.2 µM
- GI50 (OVCAR-5): 25.8 µM
- GI50 (HOP-62): 31.1 µM
- GI50 (CAKI-1): 26.8 µM
- GI50 [4]: 37.6 µM
- TGI [4]: 80.1 µM
- GI50 (UO-31): 30.7 µM
- GI50 (U-251): 4.5 µM
- Activity (SF-268): <=32%
- GI50 (NCI-H460 [5]): 26.6 µM
- GI50 (UACC-257): 0.33 µM
- GI50 (BT-549): 4.77 µM
- GI50 (RPMI-8226): 58.6 µM
- GI50 (MCF7 [6]): 9.1 µM
- GI50 (RXF 393): 6.31 µM
- GI50 (SW-620): 13.1 µM
- GI50 (OVCAR-3): 27.4 µM
- GI50 [7]: 25.4 µM
- TGI [7]: 73.5 µM
- GI50 (IGROV-1): 14.5 µM
- GI50 (SF-539): 23.8 µM
- GI50 [8]: 17.7 µM
- TGI [8]: 38.1 µM
- GI50 [9]: 15.3 µM
- TGI [9]: 21.2 µM
- GI50 (OVCAR-4): > 100 µM
- GI50 (MDA-MB-231): 5.77 µM
- GI50 (KM12): 29.4 µM
- GI50 (HCT-15): 15.1 µM
- GI50 (SNB-75): > 100 µM
- Activity (NCI-H460 [10]): <=32%
- GI50 (786-0): 14.1 µM
- GI50 (EKVX): 22.1 µM
- GI50 [11]: 32.9 µM
- GI50 (SF-295): 32.7 µM
- GI50 [12]: 21.7 µM
- TGI [12]: 71.4 µM
- GI50 (SN12C): 16.7 µM
- GI50 (HCC 2998): 18.2 µM
- GI50 (UACC-62): 6.37 µM
- GI50 (M14): 10.8 µM
- GI50 (A549): 10.6 µM
- GI50 (SK-OV-3): 52.8 µM
- Activity (MCF7 [13]): <=32%

Compound: O=C1CS/C(=N\S(=O)(=O)c2ccc(N3N=C4c5ccccc5CC4C3c3cccs3)cc2)N(c2ccccc2)C1 (stereo not drawn)
- GI50 [1]: 63.2 µM
- TGI [1]: > 100 µM
- GI50 (T47D): 69.2 µM
- GI50 (NCI-H522): 23.8 µM
- GI50 [2]: 16.9 µM
- GI50 (HT-29): 61 µM
- GI50 [3]: 37.8 µM
- TGI [3]: > 100 µM
- GI50 (SK-MEL-2): 60.2 µM
- GI50 (Hs-578T): 20.5 µM
- GI50 (NCI-H23): 24.2 µM
- GI50 (OVCAR-5): 34.5 µM
- GI50 (HOP-62): 17.4 µM
- GI50 (CAKI-1): 74.5 µM
- GI50 [4]: 19.5 µM
- TGI [4]: 82.1 µM
- GI50 (UO-31): 69.3 µM
- GI50 (U-251): 28 µM
- Activity (SF-268): <=32%
- GI50 (NCI-H460 [5]): > 100 µM
- GI50 (UACC-257): 42.3 µM
- GI50 (BT-549): 21.4 µM
- GI50 (RPMI-8226): 31 µM
- GI50 (MCF7 [6]): 88.8 µM
- GI50 (RXF 393): 41 µM
- GI50 (SW-620): 45.2 µM
- GI50 (OVCAR-3): > 100 µM
- GI50 [7]: 50.1 µM
- TGI [7]: 95.5 µM
- GI50 (IGROV-1): 19.5 µM
- GI50 (SF-539): 27.8 µM
- GI50 [8]: 43.9 µM
- TGI [8]: 96.4 µM
- GI50 [9]: 45.3 µM
- TGI [9]: 84.3 µM
- GI50 (OVCAR-4): > 100 µM
- GI50 (MDA-MB-231): 21.4 µM
- GI50 (KM12): 28.4 µM
- GI50 (HCT-15): 35.5 µM
- GI50 (SNB-75): > 100 µM
- Activity (NCI-H460 [10]): <=32%
- GI50 (786-0): 22.1 µM
- GI50 (EKVX): 39.5 µM
- GI50 [11]: > 100 µM
- GI50 (SF-295): 32.7 µM
- GI50 [12]: 41.2 µM
- TGI [12]: 79 µM
- GI50 (SN12C): 34.3 µM
- GI50 (HCC 2998): 20.5 µM
- GI50 (UACC-62): 16.1 µM
- GI50 (M14): 39.1 µM
- GI50 (A549): 47.2 µM
- GI50 (SK-OV-3): > 100 µM
- Activity (MCF7 [13]): <=32%
